From patent publication US20230226040A1, “COMBINATION THERAPY COMPRISING AN FGFR INHIBITOR AND A KRAS INHIBITOR” (Incyte Corporation, priority 2021, published 2023)

Experiments:
Type in all cases: cell-based
H358 = experiment: 5-day Cell Titer Glo combination matrix, Bliss score; conditions: H358 (Lung, Epithelial), 5 days
Description: (§3) Cells were seeded in RPMI medium with 10% HI FBS at a density of 500 cells/well in Greiner, white, clear bottom, 384-well tissue culture treated plates containing 10×10 combination matrices of compound. Plates were incubated at 37° C., 5% CO2 for 5 days. On day 5, Cell Titer Glo reagent was added to the plates and ATP luminescence was detected using a Pherastar FSX reader. The synergy score for the combination effect was calculated using a Bliss score model where the Bliss score=Yab-(Ya+Yb−(YaYb))×100, where Ya and Yb are the monotherapies. Bliss scores >20 are strongly synergistic and a higher Bliss scores indicates a higher level of synergism.
(§4) Cells were seeded in RPMI medium with 10% HI FBS at a density of 500 cells/well in Greiner, white, clear bottom, 384-well tissue culture treated plates containing 10×10 combination matrices of compound. Plates were incubated at 37° C., 5% CO2 for 5 days. On day 5, Cell Titer Glo reagent was added to the plates and ATP luminescence was detected using a Pherastar FSX reader. Synergy score for the combination effect is calculated using a Bliss score model where the Bliss score=Yab−(Ya+Yb−(YaYb))×100, where Ya and Yb are the monotherapies. Bliss scores >20 are strongly synergistic and a higher Bliss scores indicates a higher level of synergism.
(§5) Cells were seeded in RPMI medium with 10% HI FBS at a density of 500 cells/well in Greiner, white, clear bottom, 384-well tissue culture treated plates containing 10×10 combination matrices of compound. Plates were incubated at 37° C., 5% CO2 for 5 days. On day 5, Cell Titer Glo reagent was added to the plates and ATP luminescence was detected using a Pherastar FSX reader. The synergy score for the combination effect was calculated using a Bliss score model where the Bliss score=Yab−(Ya+Yb−(YaYb))×100, where Ya and Yb are the monotherapies. Bliss scores >20 are strongly synergistic and a higher Bliss scores indicates a higher level of synergism.

SW-1573 = experiment: as above; conditions: SW-1573 (Lung, Mesenchymal), 5 days
Description: as §3, §4, §5

H1792 = experiment: as above; conditions: H1792 (Lung, Mesenchymal), 5 days
Description: as §3, §4, §5

LU-99 = experiment: as above; conditions: LU-99 (Lung, Mesenchymal); FGFR inhibitor in combination with Cmpd 3; 5 days
Description: as §4, §5

SW-837 = experiment: as above; conditions: SW-837 (CRC, Epithelial); KRAS inhibitor in combination with pemigatinib; 5 days
Description: as §3, §5

Calu-1 = experiment: as above; conditions: Calu-1 (Lung, Mesenchymal); KRAS inhibitor in combination with pemigatinib; 5 days
Description: as §3

HCC-44 = experiment: as above; conditions: HCC-44 (Lung, Mesenchymal); KRAS inhibitor in combination with pemigatinib; 5 days
Description: as §3, §5

LU99 cells = experiment: siRNA FGFR knockdown plus KRAS G12C inhibitor, Cell Titer Glo proliferation; conditions: in the absence of FGFR1 or FGFR4; 120 h
Description: Knockdown efficiency was assessed by Western blot and its effect was measured by cell proliferation inhibition.
(§1) The lyophilized siRNA pools or individuals (Dharmacon ON-TARGET plus siRNA from Horizon Discovery) were reconstituted by combining 1× siRNA buffer (200 μL) with lyophilized siRNA (20 nmol); or combining 1× siRNA buffer (100 μL) with lyophilized siRNA (10 nmol). Dharmafect Reagent 1 was prepared at a 1:200 dilution in 1X siRNA buffer. One tube of diluted reagent was prepared for each siRNA dilution. To each tube, the appropriate siRNA was added to Dharmafect Reagent 1 at a 1:400 dilution. The prepared siRNA reagent (25 per well) was added to the appropriate number of wells on a 96-well clear bottom Greiner plate and incubated at room temperature for 30 min.
For plating in 96-well pates, 2000 LU99 cells per well in 100 μL of medium were prepared. The prepared cells (100 μL per well) were added to each well of the 96-well plate and incubated at 48 h.
(§2) Compound plates were prepared with a compound starting concentration of 5 mM in a 3-fold dilution. Following 48 h transfection incubation, the appropriate compounds were added to the 96-well plate at a final starting concentration of 5 μM in 3-fold dilution (11 point dose response curve). After addition of the compounds, the 96-well plates were incubated at 37° C. for 120 h. After this time, Cell Titer Glo reagent is reconstituted and 100 μL of reagent was added per well. The plates were tapped gently and luminescence was read on a Pherastar microplate reader.

A427 cells = experiment: siRNA FGFR knockdown plus KRAS G12D inhibitor, Cell Titer Glo proliferation; conditions: FGFR1 isoform knocked down; 120 h
Description: To further evaluate the KRAS/FGFR combination mechanism of action, siRNA FGFR knockdown experiments were conducted in A427 cells, followed by treatment with KRAS G12D inhibitors Compound 5, Compound 6, and Compound 7. Knockdown efficiency was assessed by Western blot (FIG. 13A) and its effect was measured by cell proliferation inhibition (FIGS. 13B-G). Initially, the effect of single FGFR isoforms knockdown in combination with KRAS G12D inhibitors Compound 5 (FIG. 13B), Compound 6 (FIG. 13D) and Compound 7 (FIG. 13F) was assessed. […] In addition, combining FGFR1 knockdown with knockdown of additional FGFR isoforms further increased the effect of KRAS G12D inhibitors (FIGS. 13C, E and G)
as §1, with “or combining lx siRNA buffer” for “or combining 1× siRNA buffer”, “dilution in 1× siRNA buffer.” for “dilution in 1X siRNA buffer.”, “reagent (25 μL per well)” for “reagent (25 per well)”
For plating in 96-well pates, 2000 A427 cells per well in 100 !IL of medium were prepared. The prepared cells (100 !IL per well) were added to each well of the 96-well plate and incubated at 48 h.
as §2, with “5μM” for “5 μM”, “After this time, Cell Titer Glo reagent is reconstituted and 100 μL of reagent was added per well.” left out

[1] = FGFR inhibitor in combination with Cmpd 3
[2] = KRAS inhibitor in combination with pemigatinib

| Compound | Avg. Bliss Score (H358; [1]) | Avg. Bliss Score (SW-1573; [1]) | Avg. Bliss Score (H1792; [1]) | Avg. Bliss Score (LU-99) | inhibition of A427 cell proliferation after siRNA knockdown (A427 cells) | other results |
| --- | --- | --- | --- | --- | --- | --- |
| CCN1CCN(c2ccc(Nc3cc(N(C)C(=O)Nc4c(Cl)c(OC)cc(OC)c4Cl)ncn3)cc2)CC1 [BGJ398] | −0.8 | 7.5 | 11.2 | 31.9 |  |  |
| CN(C)C1(C)CN(c2nc3c(F)c(-c4ccc(F)c5cccnc45)c(C(F)(F)F)cc3c3c2nnn3[C@H]2CCN(C(=O)/C=C/CF)[C@H](CC#N)C2)C1 [Compound 3, 2-((2S,4S)-4-(4-(3-(dimethylamino)-3-methylazetidin-1-yl)-6-fluoro-7-(5-fluoroquinolin-8-yl)-8-(trifluoromethyl)-1H-[1,2,3]triazolo[4,5-c]quinolin-1-yl)-1-((E)-4-fluorobutenoyl)piperidin-2-yl)acetonitrile] |  |  |  |  |  | Avg. Bliss Score (H358; [2]): 3.8; Avg. Bliss Score (SW-837): 0.9; Avg. Bliss Score (Calu-1): 8.7; Avg. Bliss Score (HCC-44): 5.8; Avg. Bliss Score (SW-1573; [2]): 18.6; Avg. Bliss Score (H1792; [2]): 28.5; inhibition of LU99 cell proliferation after siRNA knockdown (LU99 cells): higher inhibition in proliferation |
| C=CC(=O)N1CC[C@H](n2ncc3c(N4CC(N(C)C)C4)nc4c(F)c(-c5c(C)c(Cl)cc6[nH]ncc56)c(Cl)cc4c32)C[C@H]1CC#N [Compound 4, 2-((2S,4S)-1-acryloyl-4-(8-chloro-7-(6-chloro-5-methyl-1H-indazol-4-yl)-4-(3-(dimethylamino)azetidin-1-yl)-6-fluoro-1H-pyrazolo[4,3-c]quinolin-1-yl)piperidin-2-yl)acetonitrile] |  |  |  |  |  | Avg. Bliss Score (H358; [2]): −3; Avg. Bliss Score (SW-837): −11.7; Avg. Bliss Score (Calu-1): −9.9; Avg. Bliss Score (HCC-44): 4.7; Avg. Bliss Score (SW-1573; [2]): 17; Avg. Bliss Score (H1792; [2]): 30 |
| Cc1cc2c(-n3cncn3)nc3c(F)c(-c4cc(O)cc5ccc(F)cc45)c(CCC#N)cc3c2n1[C@H]1[C@H]2CN[C@@H]1C2 [Compound 5, 3-(1-((1R,4R,5S)-2-Azabicyclo[2.1.1]hexan-5-yl)-6-fluoro-7-(7-fluoro-3-hydroxynaphthalen-1-yl)-2-methyl-4-(1H-1,2,4-triazol-1-yl)-1H-pyrrolo[3,2-c]quinolin-8-yl)propanenitrile] |  |  |  |  | higher inhibition in proliferation compared to controls |  |
| CC(=O)N1CCC[C@@H]1c1cc2c(O[C@@H](C)[C@@H]3CCCN3C)nc3c(F)c(-c4cccc5c4C(C#N)CCC5)c(C)cc3c2n1[C@H]1[C@H]2CN[C@@H]1C2 (stereo partly shown) [Compound 6] |  |  |  |  | higher inhibition in proliferation compared to controls |  |
| CCOc1nc2c(F)c(-c3cc(O)cc4ccccc34)c(CCC#N)cc2c2c1cc(CN1CCN(CC)CC1=O)n2[C@H]1[C@H]2CN[C@@H]1C2 [Compound 7] |  |  |  |  | higher inhibition in proliferation compared to controls |  |
| COc1cc(OC)cc(N(CCNC(C)C)c2ccc3ncc(-c4cnn(C)c4)nc3c2)c1 [Erdafitinib] | 4.4 | 7.9 | 12.9 | 34.7 |  |  |
| C=CC(=O)N1CC[C@H](n2nc(C#Cc3cc(OC)cc(OC)c3)c3c(N)ncnc32)C1 [TAS-120] | 3.3 | 6.6 | 17.4 | 22 |  |  |
